Source: paper PMC10062609 (PLOS ONE, 2023)

Biological target: Nicotinamide phosphoribosyltransferase (NAMPT) (Homo sapiens, UniProt P43490)
Test: biochemical

Nicotinamide phosphoribosyltransferase (NAMPT), sequence (P43490 whole entry): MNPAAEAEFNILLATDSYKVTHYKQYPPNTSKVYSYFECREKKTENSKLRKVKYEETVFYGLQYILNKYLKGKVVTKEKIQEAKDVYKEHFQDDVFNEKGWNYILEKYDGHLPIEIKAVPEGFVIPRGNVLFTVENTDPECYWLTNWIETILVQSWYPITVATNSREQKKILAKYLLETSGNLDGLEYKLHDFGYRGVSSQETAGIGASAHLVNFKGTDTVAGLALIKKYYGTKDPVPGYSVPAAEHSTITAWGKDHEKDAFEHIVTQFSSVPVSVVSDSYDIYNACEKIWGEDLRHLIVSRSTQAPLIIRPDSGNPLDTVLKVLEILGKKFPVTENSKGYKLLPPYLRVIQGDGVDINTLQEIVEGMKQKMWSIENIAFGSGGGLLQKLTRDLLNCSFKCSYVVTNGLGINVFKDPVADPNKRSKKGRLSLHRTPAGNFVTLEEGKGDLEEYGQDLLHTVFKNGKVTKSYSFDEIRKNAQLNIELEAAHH

For C[C@@H]1O[C@@H](Oc2c(-c3cc(O)c(O)c(O)c3)oc3cc(O)cc(O)c3c2=O)[C@H](O)[C@H](O)[C@H]1O [compound 2, Myricitrin], the EC50 was 6.18 µM.

Work on O=c1cc2oc3cc(O)c(O)cc3c(-c3ccccc3O)c-2cc1O [compound 20, NSC9037] yielded an EC50 of 3.58 µM.
